Results as given in the kinase profiling compilation of Christmann-Franck et al. (2016).

Key:
Test in all cases: radiometric filter-binding kinase assay, Kinase HotSpot
Details in all cases: compound 0.5 µM; ATP 10 µM
ACVR1B (human) = ACVR1B (human) (UniProt P36896)
AURKB (human) = AURKB (human) (UniProt Q96GD4)
BRAF (human) = BRAF (human) (UniProt P15056)
CAMK1D (human) = CAMK1D (human) (UniProt Q8IU85)
CDK1 CCNA2 (human) = CDK1 CCNA2 (human) (UniProt P06493+P20248)
CDK6 CCND1 (human) = CDK6 CCND1 (human) (UniProt Q00534+P24385)
CHUK (human) = CHUK (human) (UniProt O15111)
CLK2 (human) = CLK2 (human) (UniProt P49760)
CSNK1E (human) = CSNK1E (human) (UniProt P49674)
CSNK2A2 (human) = CSNK2A2 (human) (UniProt P19784)
DAPK1 (human) = DAPK1 (human) (UniProt P53355)
DDR2 (human) = DDR2 (human) (UniProt Q16832)
ERBB2 (human) = ERBB2 (human) (UniProt P04626)
ERBB4 (human) = ERBB4 (human) (UniProt Q15303)
FGFR1 (human) = FGFR1 (human) (UniProt P11362)
FGFR2 (human) = FGFR2 (human) (UniProt P21802)
GRK7 (human) = GRK7 (human) (UniProt Q8WTQ7)
JAK2 JH1 JH2 (human) = JAK2 JH1 JH2 (human) (UniProt O60674)
LCK (human) = LCK (human) (UniProt P06239)
MAP2K1 (human) = MAP2K1 (human) (UniProt Q02750)
MAP3K11 (human) = MAP3K11 (human) (UniProt Q16584)
MAP3K14 (human) = MAP3K14 (human) (UniProt Q99558)
MAPK10 (human) = MAPK10 (human) (UniProt P53779)
MARK2 (human) = MARK2 (human) (UniProt Q7KZI7)
MYLK (human) = MYLK (human) (UniProt Q15746)
NEK6 (human) = NEK6 (human) (UniProt Q9HC98)
NUAK1 (human) = NUAK1 (human) (UniProt O60285)
OXSR1 (human) = OXSR1 (human) (UniProt O95747)
PASK (human) = PASK (human) (UniProt Q96RG2)
PKN2 (human) = PKN2 (human) (UniProt Q16513)
PLK1 (human) = PLK1 (human) (UniProt P53350)
PRKCB2 (human) = PRKCB2 (human) (UniProt P05771)
PRKCZ (human) = PRKCZ (human) (UniProt Q05513)
PTK2B (human) = PTK2B (human) (UniProt Q14289)
ROCK2 (human) = ROCK2 (human) (UniProt O75116)
RPS6KA3 KD1 KD2 (human) = RPS6KA3 KD1 KD2 (human) (UniProt P51812)
STK33 (human) = STK33 (human) (UniProt Q9BYT3)
[1] = molecular target: TYK2 JH1 catalytic (human) (UniProt P29597)
WNK2 (human) = WNK2 (human) (UniProt Q9Y3S1)
ZAP70 (human) = ZAP70 (human) (UniProt P43403)

Chain of ERBB2 (human) (P04626 whole entry, looked up): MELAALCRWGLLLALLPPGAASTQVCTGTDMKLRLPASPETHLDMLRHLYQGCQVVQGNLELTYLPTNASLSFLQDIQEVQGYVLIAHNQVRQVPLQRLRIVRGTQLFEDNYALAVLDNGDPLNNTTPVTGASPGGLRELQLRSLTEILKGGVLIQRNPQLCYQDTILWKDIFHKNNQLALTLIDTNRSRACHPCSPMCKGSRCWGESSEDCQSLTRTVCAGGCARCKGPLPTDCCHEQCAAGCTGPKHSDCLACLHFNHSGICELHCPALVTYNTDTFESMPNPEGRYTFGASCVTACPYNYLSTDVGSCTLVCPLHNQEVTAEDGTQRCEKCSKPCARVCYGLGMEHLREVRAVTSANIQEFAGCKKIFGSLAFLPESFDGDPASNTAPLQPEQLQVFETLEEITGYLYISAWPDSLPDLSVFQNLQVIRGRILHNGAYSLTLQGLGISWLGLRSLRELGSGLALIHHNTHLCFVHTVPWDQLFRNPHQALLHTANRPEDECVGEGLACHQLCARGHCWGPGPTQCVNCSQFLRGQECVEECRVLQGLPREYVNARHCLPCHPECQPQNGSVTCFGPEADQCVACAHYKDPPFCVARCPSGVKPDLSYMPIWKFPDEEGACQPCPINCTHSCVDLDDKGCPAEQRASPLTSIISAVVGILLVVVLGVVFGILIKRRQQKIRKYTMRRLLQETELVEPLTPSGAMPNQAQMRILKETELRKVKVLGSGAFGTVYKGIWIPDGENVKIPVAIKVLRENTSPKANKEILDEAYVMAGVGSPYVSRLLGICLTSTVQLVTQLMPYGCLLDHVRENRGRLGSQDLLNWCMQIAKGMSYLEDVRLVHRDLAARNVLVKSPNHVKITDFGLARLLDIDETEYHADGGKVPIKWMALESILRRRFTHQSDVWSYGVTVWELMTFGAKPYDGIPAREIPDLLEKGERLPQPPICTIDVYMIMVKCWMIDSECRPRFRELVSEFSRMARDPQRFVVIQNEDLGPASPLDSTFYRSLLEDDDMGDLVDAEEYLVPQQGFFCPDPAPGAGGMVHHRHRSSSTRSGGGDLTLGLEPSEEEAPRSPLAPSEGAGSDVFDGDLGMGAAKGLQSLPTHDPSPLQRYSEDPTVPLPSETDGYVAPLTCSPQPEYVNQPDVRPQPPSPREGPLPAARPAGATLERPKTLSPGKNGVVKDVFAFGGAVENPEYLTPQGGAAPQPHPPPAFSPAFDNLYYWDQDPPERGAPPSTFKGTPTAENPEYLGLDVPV
Chain of CHUK (human) (O15111 whole entry, looked up): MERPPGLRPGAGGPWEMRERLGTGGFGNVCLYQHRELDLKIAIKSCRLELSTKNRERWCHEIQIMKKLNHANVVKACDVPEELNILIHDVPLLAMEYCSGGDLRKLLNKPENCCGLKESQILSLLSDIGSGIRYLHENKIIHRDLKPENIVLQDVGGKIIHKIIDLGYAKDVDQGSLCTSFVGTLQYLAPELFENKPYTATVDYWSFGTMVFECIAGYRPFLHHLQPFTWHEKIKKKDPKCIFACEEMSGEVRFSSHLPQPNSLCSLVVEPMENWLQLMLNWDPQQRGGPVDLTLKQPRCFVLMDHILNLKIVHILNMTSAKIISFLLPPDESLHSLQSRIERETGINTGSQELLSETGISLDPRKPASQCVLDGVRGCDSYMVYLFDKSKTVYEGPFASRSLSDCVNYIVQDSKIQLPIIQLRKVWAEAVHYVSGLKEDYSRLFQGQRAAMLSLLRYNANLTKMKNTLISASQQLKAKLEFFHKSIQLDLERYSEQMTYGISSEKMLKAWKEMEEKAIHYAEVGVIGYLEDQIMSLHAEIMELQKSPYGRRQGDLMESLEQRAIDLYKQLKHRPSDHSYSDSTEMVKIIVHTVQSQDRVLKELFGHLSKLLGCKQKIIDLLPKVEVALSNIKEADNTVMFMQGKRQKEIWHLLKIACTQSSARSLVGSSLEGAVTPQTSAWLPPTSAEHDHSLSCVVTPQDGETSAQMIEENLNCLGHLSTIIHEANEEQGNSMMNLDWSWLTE
Chain of DAPK1 (human) (P53355 whole entry, looked up): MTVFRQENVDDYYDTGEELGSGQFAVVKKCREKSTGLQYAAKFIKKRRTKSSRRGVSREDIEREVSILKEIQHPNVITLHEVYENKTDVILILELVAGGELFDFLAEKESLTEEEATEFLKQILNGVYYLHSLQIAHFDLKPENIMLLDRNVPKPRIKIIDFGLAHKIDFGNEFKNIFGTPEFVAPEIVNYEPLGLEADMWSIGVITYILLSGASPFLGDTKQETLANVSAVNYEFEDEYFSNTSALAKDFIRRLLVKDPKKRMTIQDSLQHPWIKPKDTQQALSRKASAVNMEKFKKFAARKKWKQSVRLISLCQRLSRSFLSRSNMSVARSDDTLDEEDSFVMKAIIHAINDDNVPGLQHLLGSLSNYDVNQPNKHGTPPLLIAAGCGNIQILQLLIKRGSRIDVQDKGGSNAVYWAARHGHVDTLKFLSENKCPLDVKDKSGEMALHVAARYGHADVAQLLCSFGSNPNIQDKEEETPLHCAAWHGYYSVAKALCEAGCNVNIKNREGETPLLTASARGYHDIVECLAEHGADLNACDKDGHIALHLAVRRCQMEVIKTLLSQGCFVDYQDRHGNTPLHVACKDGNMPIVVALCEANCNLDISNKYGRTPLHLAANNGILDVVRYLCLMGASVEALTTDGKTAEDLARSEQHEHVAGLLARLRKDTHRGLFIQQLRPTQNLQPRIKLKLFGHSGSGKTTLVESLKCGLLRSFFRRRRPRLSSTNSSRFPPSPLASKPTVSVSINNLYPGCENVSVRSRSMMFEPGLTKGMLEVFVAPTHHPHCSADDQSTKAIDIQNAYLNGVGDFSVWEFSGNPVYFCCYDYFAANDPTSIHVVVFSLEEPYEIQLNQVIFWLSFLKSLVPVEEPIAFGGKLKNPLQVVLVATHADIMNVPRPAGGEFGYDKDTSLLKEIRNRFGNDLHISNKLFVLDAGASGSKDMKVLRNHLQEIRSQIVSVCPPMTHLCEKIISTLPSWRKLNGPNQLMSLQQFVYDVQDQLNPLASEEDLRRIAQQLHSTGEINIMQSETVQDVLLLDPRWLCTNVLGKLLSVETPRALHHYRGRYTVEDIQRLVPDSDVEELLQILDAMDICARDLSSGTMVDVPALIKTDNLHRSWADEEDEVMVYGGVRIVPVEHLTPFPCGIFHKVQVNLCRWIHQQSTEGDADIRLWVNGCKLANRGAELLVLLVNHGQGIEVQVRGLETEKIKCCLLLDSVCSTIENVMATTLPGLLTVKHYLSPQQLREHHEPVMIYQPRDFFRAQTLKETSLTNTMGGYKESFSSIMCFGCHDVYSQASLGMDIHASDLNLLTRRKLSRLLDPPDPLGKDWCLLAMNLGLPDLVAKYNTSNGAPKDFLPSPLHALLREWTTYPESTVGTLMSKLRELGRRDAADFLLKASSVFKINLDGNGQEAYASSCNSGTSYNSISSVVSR
Chain of MAP3K11 (human) (Q16584 whole entry, looked up): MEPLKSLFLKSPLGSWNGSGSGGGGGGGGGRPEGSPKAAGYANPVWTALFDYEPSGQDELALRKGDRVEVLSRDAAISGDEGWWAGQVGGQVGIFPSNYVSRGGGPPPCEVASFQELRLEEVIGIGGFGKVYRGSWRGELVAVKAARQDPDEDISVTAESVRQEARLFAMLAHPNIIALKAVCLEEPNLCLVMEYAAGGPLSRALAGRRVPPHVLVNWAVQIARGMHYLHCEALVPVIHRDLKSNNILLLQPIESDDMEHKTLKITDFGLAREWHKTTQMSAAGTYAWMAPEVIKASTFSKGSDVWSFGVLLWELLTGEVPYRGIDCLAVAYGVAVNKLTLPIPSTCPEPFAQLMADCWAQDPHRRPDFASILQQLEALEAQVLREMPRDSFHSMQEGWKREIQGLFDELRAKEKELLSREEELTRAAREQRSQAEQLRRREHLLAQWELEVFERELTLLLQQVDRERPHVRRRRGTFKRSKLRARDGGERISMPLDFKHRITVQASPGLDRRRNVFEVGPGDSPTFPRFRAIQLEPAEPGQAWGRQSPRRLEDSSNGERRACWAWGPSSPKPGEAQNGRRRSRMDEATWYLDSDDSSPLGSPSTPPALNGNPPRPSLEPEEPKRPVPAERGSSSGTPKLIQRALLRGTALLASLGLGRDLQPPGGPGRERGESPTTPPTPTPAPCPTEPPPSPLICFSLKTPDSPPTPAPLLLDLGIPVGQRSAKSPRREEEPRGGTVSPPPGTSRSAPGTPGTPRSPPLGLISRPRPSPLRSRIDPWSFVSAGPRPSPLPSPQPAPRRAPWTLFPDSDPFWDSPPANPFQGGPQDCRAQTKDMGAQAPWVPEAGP
Chain of CDK6 CCND1 (human) (P24385 whole entry, looked up): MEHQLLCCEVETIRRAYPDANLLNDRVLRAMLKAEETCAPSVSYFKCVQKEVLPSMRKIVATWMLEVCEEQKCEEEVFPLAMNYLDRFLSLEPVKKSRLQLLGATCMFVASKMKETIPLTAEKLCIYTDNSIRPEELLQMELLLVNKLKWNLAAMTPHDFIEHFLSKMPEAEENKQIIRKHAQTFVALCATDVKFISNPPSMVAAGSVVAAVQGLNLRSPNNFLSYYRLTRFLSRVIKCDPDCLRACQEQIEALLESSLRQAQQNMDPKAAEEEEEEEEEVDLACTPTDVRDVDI
Chain of CDK6 CCND1 (human) (Q00534 whole entry, looked up): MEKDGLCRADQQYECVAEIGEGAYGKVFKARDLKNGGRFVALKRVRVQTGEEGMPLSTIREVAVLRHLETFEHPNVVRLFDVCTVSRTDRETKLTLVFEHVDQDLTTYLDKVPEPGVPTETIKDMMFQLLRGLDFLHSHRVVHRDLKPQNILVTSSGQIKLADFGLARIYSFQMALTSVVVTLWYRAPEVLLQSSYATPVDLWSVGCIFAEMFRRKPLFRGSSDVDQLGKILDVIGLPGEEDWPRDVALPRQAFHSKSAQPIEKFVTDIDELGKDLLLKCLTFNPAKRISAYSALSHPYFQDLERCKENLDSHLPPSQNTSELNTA

## CCC(=O)Nc1ccc2ncnc(Nc3cccc(Br)c3)c2c1
ACVR1B (human)
  residual activity: 96.5%
AURKB (human)
  residual activity: 95.4%
BRAF (human)
  residual activity: 93%
CAMK1D (human)
  residual activity: 104%
CDK1 CCNA2 (human)
  residual activity: 87.9%
CDK6 CCND1 (human)
  residual activity: 92.5%
CHUK (human)
  residual activity: 99.3%
CLK2 (human)
  residual activity: 101%
CSNK1E (human)
  residual activity: 98.2%
CSNK2A2 (human)
  residual activity: 61.4%
DAPK1 (human)
  residual activity: 99.4%
DDR2 (human)
  residual activity: 109%
ERBB2 (human)
  residual activity: 34%
ERBB4 (human)
  residual activity: 82.3%
FGFR1 (human)
  residual activity: 108%
FGFR2 (human)
  residual activity: 99.8%
GRK7 (human)
  residual activity: 105%
JAK2 JH1 JH2 (human)
  residual activity: 103%
LCK (human)
  residual activity: 93.1%
MAP2K1 (human)
  residual activity: 105%
MAP3K11 (human)
  residual activity: 97.1%
MAP3K14 (human)
  residual activity: 116%
MAPK10 (human)
  residual activity: 96.5%
MARK2 (human)
  residual activity: 73.5%
MYLK (human)
  residual activity: 95.5%
NEK6 (human)
  residual activity: 105%
NUAK1 (human)
  residual activity: 87.3%
OXSR1 (human)
  residual activity: 107%
PASK (human)
  residual activity: 88.7%
PKN2 (human)
  residual activity: 106%
PLK1 (human)
  residual activity: 95.3%
PRKCB2 (human)
  residual activity: 101%
PRKCZ (human)
  residual activity: 95.7%
PTK2B (human)
  residual activity: 99%
ROCK2 (human)
  residual activity: 86.1%
RPS6KA3 KD1 KD2 (human)
  residual activity: 95%
STK33 (human)
  residual activity: 94.1%
[1]
  residual activity: 90.2%
WNK2 (human)
  residual activity: 107%
ZAP70 (human)
  residual activity: 113%

## Nc1cccc(-c2cc3c(Oc4cccc(O)c4)ncnc3[nH]2)c1
ACVR1B (human)
  residual activity: 122%
AURKB (human)
  residual activity: 71.9%
BRAF (human)
  residual activity: 53.2%
CAMK1D (human)
  residual activity: 97.7%
CDK1 CCNA2 (human)
  residual activity: 99.3%
CDK6 CCND1 (human)
  residual activity: 82.2%
CHUK (human)
  residual activity: 102%
CLK2 (human)
  residual activity: 98.8%
CSNK1E (human)
  residual activity: 92.9%
CSNK2A2 (human)
  residual activity: 96.5%
DAPK1 (human)
  residual activity: 89.1%
DDR2 (human)
  residual activity: 29.3%
ERBB2 (human)
  residual activity: 76.6%
ERBB4 (human)
  residual activity: 75.8%
FGFR1 (human)
  residual activity: 39.3%
FGFR2 (human)
  residual activity: 46.1%
GRK7 (human)
  residual activity: 102%
JAK2 JH1 JH2 (human)
  residual activity: 85.4%
LCK (human)
  residual activity: 24.2%
MAP2K1 (human)
  residual activity: 76.3%
MAP3K11 (human)
  residual activity: 52.4%
MAP3K14 (human)
  residual activity: 69.6%
MAPK10 (human)
  residual activity: 89.4%
MARK2 (human)
  residual activity: 79%
MYLK (human)
  residual activity: 81.7%
NEK6 (human)
  residual activity: 90.2%
NUAK1 (human)
  residual activity: 37%
OXSR1 (human)
  residual activity: 119%
PASK (human)
  residual activity: 96.2%
PKN2 (human)
  residual activity: 72%
PLK1 (human)
  residual activity: 104%
PRKCB2 (human)
  residual activity: 97.5%
PRKCZ (human)
  residual activity: 94%
PTK2B (human)
  residual activity: 65.6%
ROCK2 (human)
  residual activity: 94.5%
RPS6KA3 KD1 KD2 (human)
  residual activity: 96.9%
STK33 (human)
  residual activity: 80.3%
[1]
  residual activity: 36.9%
WNK2 (human)
  residual activity: 103%
ZAP70 (human)
  residual activity: 97.5%
